This note sets out measurements from patent US10590106B2, “Certain chemical entities, compositions, and methods” (NeuPharma, Inc., priority 2012, dated 2020).

By IC50 is commonly meant the point on the concentration scale where inhibition reaches its midpoint. A word on the inhibition: it is the relative decrease from the control value, in per cent.

Some results are limits rather than exact numbers.

One assay relates to A549 cells. Nature of the assay: Inhibition of cancer cell growth, MTT or MTS assay, A549. The class given is cell-based. To be noted: Homo sapiens, 72 h incubation. The procedure, abridged:
(§1)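 Cells in RPMI 1640 with 10% FBS were seeded at ~2000 (A375) or 4000 (A549, Colo205) per well, grown 24 h, then exposed to compound 72 h at 1% final DMSO. Read-out by MTT (570 nm) or MTS (490 nm). IC50 from concentration vs percent inhibition, triplicates.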
(Tetrazolium dyes change colour on reduction, which living cells bring about.)

For the next assay, the system named is A375 cells. Nature of the assay: Inhibition of cancer cell growth, MTT or MTS assay, A375. The class given is cell-based. Conditions: Homo sapiens, A-375; 72 h incubation. Summed up:
as §1

The target of another assay is BRAF V600E (Homo sapiens (Human), UniProt P15056, V600E). As to the kind of experiment: Inhibitory activity against kinase BRAF V600E, Z'-LYTE method (Invitrogen). Conditions: for inhibition at 1 µM: 1 μM compound, read-out: Inhibition (% inhibition at 1 μM) against BRAF V600E. The format is biochemical. Summed up: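 FRET-based Z′-LYTE peptide-phosphorylation assay in 50 mM HEPES pH 7.5, 0.01% BRIJ-35, 10 mM MgCl2, 1 mM EGTA; kinase reaction 60 min at room temperature, then 60 min development before fluorescence read. IC50 from concentration vs % inhibition; single-point % inhibition tested at 1 μM.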
Chain of BRAF V600E (P15056 whole entry V600E): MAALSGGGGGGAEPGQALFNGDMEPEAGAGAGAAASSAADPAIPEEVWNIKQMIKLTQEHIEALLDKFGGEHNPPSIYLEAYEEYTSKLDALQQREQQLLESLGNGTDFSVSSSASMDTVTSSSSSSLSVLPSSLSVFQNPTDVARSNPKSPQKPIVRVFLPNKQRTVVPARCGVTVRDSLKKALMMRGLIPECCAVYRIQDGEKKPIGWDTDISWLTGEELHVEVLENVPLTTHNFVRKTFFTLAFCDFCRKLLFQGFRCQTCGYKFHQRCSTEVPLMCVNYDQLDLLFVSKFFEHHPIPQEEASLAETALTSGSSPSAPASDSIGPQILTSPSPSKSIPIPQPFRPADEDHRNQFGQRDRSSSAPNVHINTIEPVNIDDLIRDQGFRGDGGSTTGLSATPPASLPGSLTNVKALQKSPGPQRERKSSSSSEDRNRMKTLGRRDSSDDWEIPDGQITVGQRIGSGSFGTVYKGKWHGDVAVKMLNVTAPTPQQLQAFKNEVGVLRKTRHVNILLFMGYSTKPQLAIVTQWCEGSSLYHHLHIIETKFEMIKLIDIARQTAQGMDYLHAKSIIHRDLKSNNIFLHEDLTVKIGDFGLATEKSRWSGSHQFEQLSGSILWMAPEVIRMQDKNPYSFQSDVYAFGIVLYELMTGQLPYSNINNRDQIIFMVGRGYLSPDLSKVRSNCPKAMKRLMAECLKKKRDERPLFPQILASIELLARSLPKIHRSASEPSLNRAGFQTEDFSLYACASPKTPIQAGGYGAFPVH

A further assay concerns Colo205 cells. As to the kind of experiment: Inhibition of cancer cell growth, MTT or MTS assay, Colo205. To be noted: Homo sapiens, COLO 205; 72 h incubation. The class given is cell-based. The method, then:
Inhibition of cell growth by compounds was measured using MTT or MTS assay. Tumor cell lines were purchased from ATCC (American Type Culture Collection, Manassas, Va.). All cell lines were maintained in RPMI 1640 (Hyclone) supplemented with 10% fetal bovine serum (FBS, Hyclone), glutamine (2 mM, Hyclone), and antibiotics (penicillin 100 U/mL and streptomycin 50 μg/mL) at 37° C. in a humidified atmosphere of 5% CO2 in air. Taxol (as a positive control, Sigma) and compounds were dissolved in DMSO (Sigma), and the final concentration of DMSO in the medium was 1%. Tumor cells were plated in 96-well plates at densities of about 2000 (A375) or 4000 (A549 and Colo205) cells/well of a 96-well plate and allowed to adhere/grow for 24 h. They were then treated with various concentrations of drug and incubated for 72 h. For MTT method, medium was then removed by inverting and tapping the plates. 100 μL of MTT (0.5 mg/ml) was added to each well followed by an incubated at 37° C. for 4 h. MTT was then removed and 200 μL of DMSO was added to each well, and the ODs at 570 nm were measured after a 5 second shaking cycle in a 96-well spectrophotometer. For MTS method, 20 μL MTS (CellTiter 96 Aqueous One Solution, Promega) was added to each well followed by an incubated at 37° C. for 2-4 h, solutions were then directly put in a 96-well spectrophotometer, and the ODs at 490 nm were measured.
All concentrations of compounds were tested in triplicate and controls were averaged over 4 wells. IC50 was calculated by plotting the concentration of compound vs the percentage of inhibition in treated wells using GraphPad Prism 5. […] The scale utilized in Tables […] is as follows: +++ less than 1000 nM; ++ between 1000 nM and 5000 nM; and + greater than 5000 nM. The scale utilized in Table 8 is as follows: +++ less than 2000 nM; ++ between 2000 nM and 5000 nM; and + greater than 5000 nM.

The target of a further assay is KDR (VEGFR2) (Homo sapiens (Human), UniProt P35968). As to the kind of experiment: Inhibitory activity against kinase KDR, Z'-LYTE method (Invitrogen). The format is biochemical. Conditions: for inhibition at 1 µM: 1 μM compound, read-out: Inhibition (% inhibition at 1 μM) against KDR. The procedure, abridged:
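Human KDR (VEGFR2) kinase inhibition was measured with Invitrogen's Z′-LYTE® method. A 2× mixture of KDR and Tyr 01 peptide is made in 50 mM HEPES pH 7.5, 0.01% BRIJ-35, 10 mM MgCl2, 1 mM EGTA. Each 10 μL reaction holds 0.5-11.7 ng enzyme and 2 μM Tyr 01. It incubates for 1 hour, then 5 μL of Development Reagent B diluted 1:256 is added.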

Another assay relates to Colo205 tumor xenograft. As to the kind of experiment: Inhibition of tumor growth in Colo205 tumor xenograft model. The format is in vivo, BALB/c female nude mice. To be noted: 30 mg/kg, qd × 14, i.p. The method, then:
Cells were implanted in BALB/c female nude mice and grown as tumor xenografts. When tumors achieved 120-200 mm^3, mice were assigned into treatment and control groups using randomized block design based upon their tumor volumes. Each group contained 6 tumor-bearing mice. Tumors were measured twice weekly in two dimensions using a caliper, and the tumor volume was calculated from two-dimensional measurements using the equation V=0.5×a×b^2 where a and b are the long and short diameters of the tumor, respectively. Relative tumor volume (RTV) was defined as TVt/TVi, the ratio of the volume on a given day (TVt) and the volume at the start of treatment (TVi). Relative tumor growth rate (T/C) was defined as RTVT/RTVC, the ratio of relative tumor volume of treatment group (RTVT) and relative tumor volume of control group (RTVC) on a given day. Inhibition of tumor growth in a Colo205 tumor xenograft model is shown below in Table 10 for a compound of Table 1.

The next assay concerns the target BRAF (Homo sapiens (Human), UniProt P15056). Nature of the assay: Inhibitory activity against kinase BRAF, Z'-LYTE method (Invitrogen). The format is biochemical. Conditions: 1 μM compound. The procedure, abridged: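 Z′-LYTE FRET kinase assay in 50 mM HEPES pH 7.5, 10 mM MgCl2, 1 mM EGTA, 0.01% Brij-35, with a 60 min RT kinase reaction, then 60 min development. IC50 was taken from % inhibition versus concentration. Values may be given as % inhibition at 1 μM.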

Chain of KDR (VEGFR2) (P35968 20-1356): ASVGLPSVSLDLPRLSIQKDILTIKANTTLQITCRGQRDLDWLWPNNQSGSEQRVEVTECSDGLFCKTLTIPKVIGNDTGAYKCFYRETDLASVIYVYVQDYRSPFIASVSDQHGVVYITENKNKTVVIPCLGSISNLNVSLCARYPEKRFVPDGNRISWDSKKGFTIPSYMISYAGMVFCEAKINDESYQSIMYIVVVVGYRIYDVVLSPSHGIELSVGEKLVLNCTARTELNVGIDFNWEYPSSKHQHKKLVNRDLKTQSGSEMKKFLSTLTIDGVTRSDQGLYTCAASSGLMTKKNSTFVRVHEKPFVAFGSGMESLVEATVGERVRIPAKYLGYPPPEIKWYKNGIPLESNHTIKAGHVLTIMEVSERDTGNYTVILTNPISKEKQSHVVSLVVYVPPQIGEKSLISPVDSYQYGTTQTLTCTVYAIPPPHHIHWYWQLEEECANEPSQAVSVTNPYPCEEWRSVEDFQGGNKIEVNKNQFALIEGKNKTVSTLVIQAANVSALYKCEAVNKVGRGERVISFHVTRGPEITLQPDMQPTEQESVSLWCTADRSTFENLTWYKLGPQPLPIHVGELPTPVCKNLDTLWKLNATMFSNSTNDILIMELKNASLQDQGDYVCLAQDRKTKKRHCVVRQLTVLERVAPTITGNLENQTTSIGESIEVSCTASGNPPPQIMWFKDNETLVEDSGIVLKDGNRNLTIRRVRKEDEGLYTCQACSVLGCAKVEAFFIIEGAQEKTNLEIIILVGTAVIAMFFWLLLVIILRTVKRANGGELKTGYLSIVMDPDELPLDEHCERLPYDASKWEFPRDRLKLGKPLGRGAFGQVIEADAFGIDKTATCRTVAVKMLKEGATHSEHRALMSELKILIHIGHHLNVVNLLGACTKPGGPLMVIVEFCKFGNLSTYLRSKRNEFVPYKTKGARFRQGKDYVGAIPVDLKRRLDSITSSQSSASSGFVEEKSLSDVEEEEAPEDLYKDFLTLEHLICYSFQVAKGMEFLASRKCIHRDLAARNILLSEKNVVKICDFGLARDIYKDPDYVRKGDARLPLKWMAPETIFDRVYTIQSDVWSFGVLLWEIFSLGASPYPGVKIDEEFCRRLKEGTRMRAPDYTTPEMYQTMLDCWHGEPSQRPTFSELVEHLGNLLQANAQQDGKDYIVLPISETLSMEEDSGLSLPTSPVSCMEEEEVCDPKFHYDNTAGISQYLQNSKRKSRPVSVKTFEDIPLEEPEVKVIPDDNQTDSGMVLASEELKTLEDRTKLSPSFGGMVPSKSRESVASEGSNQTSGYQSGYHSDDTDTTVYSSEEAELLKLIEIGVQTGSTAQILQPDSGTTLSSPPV
Chain of BRAF (P15056 whole entry): as the sequence (P15056 whole entry V600E) above, with E600V counted along it

On to `O=C(Nc1cccc(Oc2ccc3nccnc3c2)c1)Nc1ccc(Cl)c(C(F)(F)F)c1` [Compound C001, 1-(4-chloro-3-(trifluoromethyl)phenyl)-3-(3-(quinoxalin-6-yloxy)phenyl)urea], for which the concentration for half-maximal inhibition (IC50) with A549 cells is under 2 µM; with A375 cells, 1 to 5 µM; at BRAF V600E, over 100 nM; in the assay on Colo205 cells, 1 to 5 µM; at KDR (VEGFR2), under 100 nM. In addition, the inhibition at 1 µM at BRAF V600E and on KDR (VEGFR2) was over 89% in each case.
As to `O=C(Nc1ccc(Oc2ccc3ncc(N4CCNCC4)nc3c2)cc1)Nc1ccc(F)c(C(F)(F)F)c1` [Compound C087, 1-(4-fluoro-3-(trifluoromethyl)phenyl)-3-(4-((3-(piperazin-1-yl)quinoxalin-6-yl)oxy)phenyl)urea], the values for the half-maximal inhibitory concentration (IC50) in the assay with A549 cells, in the assay with A375 cells and with Colo205 cells were under 2 µM, 1 to 5 µM and 1 to 5 µM, respectively. For the same compound, the “T/C (relative tumor growth rate)” value in the assay with Colo205 tumor xenograft was 81%. In addition, the “Tumor Volume Post-treatment” value in the assay on Colo205 tumor xenograft (after treatment) is reported as 796.35 mm^3. For the same compound, in the assay with Colo205 tumor xenograft (before treatment), the “Tumor Volume Pre-treatment” value worked out at 237.13 mm^3. Moreover, the inhibition at 1 µM on BRAF V600E is over 89%; on BRAF, 70 to 89%; on KDR (VEGFR2) it was over 89%.
Regarding `N#Cc1ccc(NC(=O)Nc2cccc(Oc3ccc4nccnc4c3)c2)cc1` [Compound C070, 1-(4-cyanophenyl)-3-(3-(quinoxalin-6-yloxy)phenyl)urea], the IC50 with A549 cells and in the assay on A375 cells was over 5 µM in each case. Besides, the inhibition at 1 µM at BRAF V600E, against BRAF and on KDR (VEGFR2) was over 89% in each case.
As for `O=C(Nc1cccc(Cl)c1)Nc1cccc(Oc2ccc3ncc(N4CCOCC4)nc3c2)c1` [Compound C047, 1-(3-chlorophenyl)-3-(3-((3-morpholinoquinoxalin-6-yl)oxy)phenyl)urea], the IC50 with A549 cells was over 5 µM; in the assay on A375 cells, 1 to 5 µM. The inhibition at 1 µM at BRAF V600E is over 89%; on BRAF it was 70 to 89%; on KDR (VEGFR2), 70 to 89%.
In the case of `O=C(Nc1cc(F)cc(Oc2ccc3nccnc3c2)c1)Nc1cccc(C(F)(F)F)c1` [Compound C021, 1-(3-fluoro-5-(quinoxalin-6-yloxy)phenyl)-3-(3-(trifluoromethyl)phenyl)urea], the results for the IC50 with A549 cells and with A375 cells were under 2 µM and 1 to 5 µM, respectively. In addition, the inhibition at 1 µM on BRAF V600E is over 89%; against BRAF, under 70%; at KDR (VEGFR2), 70 to 89%.
On the same counts, the results for `O=C(Nc1ccc(Oc2ccc3ncc(N4CCNCC4)nc3c2)cc1)Nc1cccc(Cl)c1` [Compound C091, 1-(3-chlorophenyl)-3-(4-((3-(piperazin-1-yl)quinoxalin-6-yl)oxy)phenyl)urea] are 2 to 5 µM, 1 to 5 µM, over 89%, over 89% and over 89%.
Turning to `O=C(Nc1cccc(Oc2ccc3nccnc3c2)c1)Nc1cccc(C(F)(F)F)c1` [Compound C003, 1-(3-(quinoxalin-6-yloxy)phenyl)-3-(3-(trifluoromethyl)phenyl)urea], the concentration for half-maximal inhibition (IC50) was 2 to 5 µM with A549 cells, over 5 µM in the assay on A375 cells, over 100 nM on BRAF V600E and under 100 nM against KDR (VEGFR2). In addition, the inhibition at 1 µM at BRAF V600E is over 89%; at BRAF, under 70%; at KDR (VEGFR2), over 89%.
Consider `O=C(Nc1ccc(F)cc1)Nc1ccc(Oc2ccc3ncc(N4CCOCC4)nc3c2)cc1` [Compound C082, 1-(4-fluorophenyl)-3-(4-((3-morpholinoquinoxalin-6-yl)oxy)phenyl)urea], for which the inhibition at 1 µM at BRAF V600E was over 89%; against BRAF, under 70%; at KDR (VEGFR2), 70 to 89%. This compound also returned a half-maximal inhibitory concentration (IC50) in the assay with Colo205 cells of over 5 µM.
As for `O=C(Nc1ccc(F)cc1)Nc1ccc(Oc2ccc3ncc(N4CCNCC4)nc3c2)cc1` [Compound C090, 1-(4-fluorophenyl)-3-(4-((3-(piperazin-1-yl)quinoxalin-6-yl)oxy)phenyl)urea], the concentration for half-maximal inhibition (IC50) in the assay with A549 cells is under 2 µM; in the assay on A375 cells, 1 to 5 µM. For the same compound, the inhibition at 1 µM at BRAF V600E is over 89%; on BRAF, 70 to 89%; at KDR (VEGFR2) it was over 89%.
Take `O=C(Nc1cccc(Cl)c1)Nc1ccc(Oc2ccc3nccnc3c2)cc1F` [Compound C093, 1-(3-chlorophenyl)-3-(2-fluoro-4-(quinoxalin-6-yloxy)phenyl)urea]: the IC50 in the assay with A549 cells and with A375 cells was over 5 µM throughout. Besides, the values for the inhibition at 1 µM on BRAF V600E, on BRAF and on KDR (VEGFR2) were over 89%, 70 to 89% and 70 to 89%, respectively.
With `O=C(Nc1cccc(Oc2ccc3nccnc3c2)c1)c1ccc(Cl)c(C(F)(F)F)c1` [Compound C006, 4-chloro-N-(3-(quinoxalin-6-yloxy)phenyl)-3-(trifluoromethyl)benzamide], the 50% inhibitory concentration (IC50) with A549 cells and in the assay on A375 cells was over 5 µM throughout. For the same compound, the inhibition at 1 µM at BRAF V600E is over 89%; against BRAF, under 70%; on KDR (VEGFR2), 70 to 89%.
Take `O=C(Nc1ccc(Cl)cc1)Nc1cccc(Oc2ccc3ncc(N4CCOCC4)nc3c2)c1` [Compound C048, 1-(4-chlorophenyl)-3-(3-((3-morpholinoquinoxalin-6-yl)oxy)phenyl)urea]: the 50% inhibitory concentration (IC50) with A549 cells was 2 to 5 µM; in the assay with A375 cells it was 1 to 5 µM. Further, the inhibition at 1 µM is over 89% on BRAF V600E, 70 to 89% against BRAF and 70 to 89% at KDR (VEGFR2).
On to `O=C(Nc1ccc(Oc2ccc3ncc(N4CCNCC4)nc3c2)cc1)Nc1ccc(C(F)(F)F)cc1` [Compound C088, 1-(4-((3-(piperazin-1-yl)quinoxalin-6-yl)oxy)phenyl)-3-(4-(trifluoromethyl)phenyl)urea], for which the IC50 in the assay with A549 cells fell in the range of 2 to 5 µM; in the assay on A375 cells, 1 to 5 µM. In addition, the inhibition at 1 µM on BRAF V600E is over 89%; on BRAF, under 70%; on KDR (VEGFR2), over 89%.
Consider `O=C(Nc1cc(F)cc(Oc2ccc3ncc(N4CCOCC4)nc3c2)c1)c1cccc(C(F)(F)F)c1` [Compound C028, N-(3-fluoro-5-((3-morpholinoquinoxalin-6-yl)oxy)phenyl)-3-(trifluoromethyl)benzamide], for which the IC50 in the assay on A549 cells was over 5 µM; with A375 cells it was 1 to 5 µM. In addition, the inhibition at 1 µM was over 89% at BRAF V600E, under 70% on BRAF and 70 to 89% on KDR (VEGFR2).
